Reference: US6541425B1, “Retarding formulations of active substances used for plant protection” (priority 1998, dated 2003)
In brackets after ≈: the same amount, converted by molar mass.

Columns and labels:
[1] = Solubility in water of the active ingredients; assay type: physicochemical; conditions: for solubility: water

Molecule | melting point [°C] | solubility [1] [mg/mL] | Solubility in water [1] [mg/mL]
CNC(=O)/C(=N/OC)c1ccccc1CO/N=C(C)/C(=N/OC)OC(C)C [Compound 1, N-methyl-2-[2-(2-isopropoxy-2-(Z)-methoxyimino-1-methyl-(E)-ethylideneaminooxymethyl)phenyl]-2-(E)-methoxyiminoacetamide] | 57 | 1.34 (≈ 3.54 mM) | 
N-methylphenyl-2-((3-[E]-methoxyimino, 5-methyl, 2-[E]-oximino-hex-4-en-yl)methyl)-alpha-[E]-methoximinoacetamide [Compound 5] |  |  | 0.058
CNC(=O)/C(=N/OC)c1ccccc1CO/N=C(C)/C(=N/OC)C(/C)=N/OC [Compound 4, N-methylphenyl-2-((3,4-[E]-bis(methoximino), 2-[E]-oximinopentyl)methyl)-alpha-[E]-methoximinoacetamide] |  |  | 0.450 (≈ 1.15 mM)
CCC(C)OC(=N\OC)/C(C)=N/OCc1ccccc1/C(=N\OC)C(=O)NC (centres unmarked) [Compound 2, N-methyl-2-[2-(2-sec-butoxy-2-(Z)-methoxyimino-1-methyl-(E)-ethylideneaminooxymethyl)phenyl]-2-(E)-methoxyiminoacetamide] | 48 to 50 | 1.19 (≈ 3.03 mM) | 
CNC(=O)/C(=N/OC)c1ccccc1CO/N=C(C)/C(=N/OC)OCC(C)C [Compound 3, N-methyl-2-[2-(2-isobutoxy-2-(Z)-methoxyimino-1-methyl-(E)-ethylideneaminooxymethyl)phenyl]-2-(E)-methoxyiminoacetamide] | 68 | 0.5 (≈ 1.27 mM) | 
